Laboratory results published in patent publication US20100160351A1, “PHARMACEUTICAL COMPOSITIONS AND METHODS FOR TREATING HYPERURICEMIA AND RELATED DISORDERS” (NUON THERAPEUTICS, INC., priority 2008, published 2010).

Tested on: serum uric acid (sUA) levels in hyperuricemic patients
Assay: PRESTO study: change in serum uric acid in hyperuricemic patients (baseline >=8 mg/dL), Tranilast twice daily for 1 or 3 months
Type: in vivo, human
Procedure: The PRESTO (Prevention of Restenosis with Tranilast and its Outcomes) study was a multicenter study of ˜11,500 patients undergoing percutaneous transluminal coronary revascularization (PTCR) with or without stenting for single or multiple vessels over a 9-month period. The study compared the composite clinical event rate of death, myocardial infarction, or need for ischemia-driven target vessel revascularization in patients treated with Tranilast (300 and 450 mg twice daily) for 1 or 3 months versus placebo. Description of the study protocol and patient population can be found in Holmes et al., The PRESTO (Prevention of Restenosis with Tranilast and its Outcomes) protocol: A double-blind, placebo-controlled trial, Am Heart J 2000; 139:23-31; and Holmes et al., Results of Prevention of REStenosis with Tranilast and its Outcomes (PRESTO) Trial, Circulation. 2002; 106:1243, both of which are incorporated by reference herein in their entirety.
Gout was a contraindication for patient enrollment in the PRESTO trial. Nevertheless, 1100 patients enrolled in the trial were identified with baseline hyperuricemia defined as initial serum uric acid (sUA) levels greater than or equal to 7 mg/dL. Of these, approximately 300 participants had baseline serum uric acid levels greater than or equal to 8 mg/dL. […] As indicated in FIG. 1 and Table 4, some patients were treated with placebo, some patients were treated with Tranilast for 4 weeks followed by placebo, and some patients were treated with Tranilast for 12 weeks.

[1] = 1M TRAN 300 mg/2M PLACEBO, Follow-Up
[2] = 1M TRAN 300 mg/2M PLACEBO, Post-PTCR
[3] = 1M TRAN 300 mg/2M PLACEBO, Week 1
[4] = 1M TRAN 300 mg/2M PLACEBO, Week 2
[5] = 1M TRAN 300 mg/2M PLACEBO, Week 3
[6] = 1M TRAN 300 mg/2M PLACEBO, Week 4
[7] = 1M TRAN 300 mg/2M PLACEBO, Week 6
[8] = 1M TRAN 300 mg/2M PLACEBO, Week 8
[9] = 1M TRAN 300 mg/2M PLACEBO, Week 10
[10] = 1M TRAN 300 mg/2M PLACEBO, Week 12
[11] = 1M TRAN 450 mg/2M PLACEBO, Follow-Up
[12] = 1M TRAN 450 mg/2M PLACEBO, Post-PTCR
[13] = 1M TRAN 450 mg/2M PLACEBO, Week 1
[14] = 1M TRAN 450 mg/2M PLACEBO, Week 2
[15] = 1M TRAN 450 mg/2M PLACEBO, Week 3
[16] = 1M TRAN 450 mg/2M PLACEBO, Week 4
[17] = 1M TRAN 450 mg/2M PLACEBO, Week 6
[18] = 1M TRAN 450 mg/2M PLACEBO, Week 8
[19] = 1M TRAN 450 mg/2M PLACEBO, Week 10
[20] = 1M TRAN 450 mg/2M PLACEBO, Week 12

COc1ccc(/C=C/C(=O)Nc2ccccc2C(=O)O)cc1OC [Tranilast, 2-[[3-(3,4-dimethoxyphenyl)-1-oxo-2-propenyl]amino]benzoic acid]
Change from Baseline in Uric Acid, Max [1]: 2.00 mg/dL
Change from Baseline in Uric Acid, Mean (SD) [1]: −0.64 (1.351) mg/dL
Change from Baseline in Uric Acid, Median [1]: -0.86 mg/dL
Change from Baseline in Uric Acid, Min [1]: -3.30 mg/dL
Change from Baseline in Uric Acid, Max [2]: 2.03 mg/dL
Change from Baseline in Uric Acid, Mean (SD) [2]: −1.33 (1.220) mg/dL
Change from Baseline in Uric Acid, Median [2]: -1.30 mg/dL
Change from Baseline in Uric Acid, Min [2]: -4.54 mg/dL
Change from Baseline in Uric Acid, Max [3]: 2.70 mg/dL
Change from Baseline in Uric Acid, Mean (SD) [3]: −2.31 (1.839) mg/dL
Change from Baseline in Uric Acid, Median [3]: -2.51 mg/dL
Change from Baseline in Uric Acid, Min [3]: -6.05 mg/dL
Change from Baseline in Uric Acid, Max [4]: 1.80 mg/dL
Change from Baseline in Uric Acid, Mean (SD) [4]: −2.61 (2.149) mg/dL
Change from Baseline in Uric Acid, Median [4]: -3.00 mg/dL
Change from Baseline in Uric Acid, Min [4]: -7.05 mg/dL
Change from Baseline in Uric Acid, Max [5]: 3.50 mg/dL
Change from Baseline in Uric Acid, Mean (SD) [5]: −2.43 (2.143) mg/dL
Change from Baseline in Uric Acid, Median [5]: -2.70 mg/dL
Change from Baseline in Uric Acid, Min [5]: -6.61 mg/dL
Change from Baseline in Uric Acid, Max [6]: 2.60 mg/dL
Change from Baseline in Uric Acid, Mean (SD) [6]: −2.30 (1.953) mg/dL
Change from Baseline in Uric Acid, Median [6]: -2.40 mg/dL
Change from Baseline in Uric Acid, Min [6]: -7.40 mg/dL
Change from Baseline in Uric Acid, Max [7]: 2.40 mg/dL
Change from Baseline in Uric Acid, Mean (SD) [7]: −0.82 (1.416) mg/dL
Change from Baseline in Uric Acid, Median [7]: -0.70 mg/dL
Change from Baseline in Uric Acid, Min [7]: -5.21 mg/dL
Change from Baseline in Uric Acid, Max [8]: 1.55 mg/dL
Change from Baseline in Uric Acid, Mean (SD) [8]: −0.63 (1.371) mg/dL
Change from Baseline in Uric Acid, Median [8]: -0.70 mg/dL
Change from Baseline in Uric Acid, Min [8]: -4.54 mg/dL
Change from Baseline in Uric Acid, Max [9]: 2.10 mg/dL
Change from Baseline in Uric Acid, Mean (SD) [9]: −0.79 (1.195) mg/dL
Change from Baseline in Uric Acid, Median [9]: -0.83 mg/dL
Change from Baseline in Uric Acid, Min [9]: -3.53 mg/dL
Change from Baseline in Uric Acid, Max [10]: 1.50 mg/dL
Change from Baseline in Uric Acid, Mean (SD) [10]: −0.75 (1.500) mg/dL
Change from Baseline in Uric Acid, Median [10]: -0.52 mg/dL
Change from Baseline in Uric Acid, Min [10]: -4.90 mg/dL
Change from Baseline in Uric Acid, Max [11]: 1.20 mg/dL
Change from Baseline in Uric Acid, Mean (SD) [11]: −0.53 (1.249) mg/dL
Change from Baseline in Uric Acid, Median [11]: -0.40 mg/dL
Change from Baseline in Uric Acid, Min [11]: -4.40 mg/dL
Change from Baseline in Uric Acid, Max [12]: 0.70 mg/dL
Change from Baseline in Uric Acid, Mean (SD) [12]: −2.00 (1.454) mg/dL
Change from Baseline in Uric Acid, Median [12]: -1.96 mg/dL
Change from Baseline in Uric Acid, Min [12]: -5.21 mg/dL
Change from Baseline in Uric Acid, Max [13]: 2.00 mg/dL
Change from Baseline in Uric Acid, Mean (SD) [13]: −3.66 (1.902) mg/dL
Change from Baseline in Uric Acid, Median [13]: -3.95 mg/dL
Change from Baseline in Uric Acid, Min [13]: -8.00 mg/dL
Change from Baseline in Uric Acid, Max [14]: 1.00 mg/dL
Change from Baseline in Uric Acid, Mean (SD) [14]: −3.43 (2.176) mg/dL
Change from Baseline in Uric Acid, Median [14]: -3.50 mg/dL
Change from Baseline in Uric Acid, Min [14]: -8.40 mg/dL
Change from Baseline in Uric Acid, Max [15]: -0.70 mg/dL
Change from Baseline in Uric Acid, Mean (SD) [15]: −4.19 (1.978) mg/dL
Change from Baseline in Uric Acid, Median [15]: -4.27 mg/dL
Change from Baseline in Uric Acid, Min [15]: -7.90 mg/dL
Change from Baseline in Uric Acid, Max [16]: 1.00 mg/dL
Change from Baseline in Uric Acid, Mean (SD) [16]: −3.52 (2.127) mg/dL
Change from Baseline in Uric Acid, Median [16]: -4.03 mg/dL
Change from Baseline in Uric Acid, Min [16]: -7.65 mg/dL
Change from Baseline in Uric Acid, Max [17]: 2.50 mg/dL
Change from Baseline in Uric Acid, Mean (SD) [17]: −0.29 (1.188) mg/dL
Change from Baseline in Uric Acid, Median [17]: -0.30 mg/dL
Change from Baseline in Uric Acid, Min [17]: -3.20 mg/dL
Change from Baseline in Uric Acid, Max [18]: 3.60 mg/dL
Change from Baseline in Uric Acid, Mean (SD) [18]: −0.49 (2.142) mg/dL
Change from Baseline in Uric Acid, Median [18]: -0.10 mg/dL
Change from Baseline in Uric Acid, Min [18]: -9.70 mg/dL
Change from Baseline in Uric Acid, Max [19]: 4.60 mg/dL
Change from Baseline in Uric Acid, Mean (SD) [19]: −0.46 (1.494) mg/dL
Change from Baseline in Uric Acid, Median [19]: -0.38 mg/dL
Change from Baseline in Uric Acid, Min [19]: -4.40 mg/dL
Change from Baseline in Uric Acid, Max [20]: 2.70 mg/dL
Change from Baseline in Uric Acid, Mean (SD) [20]: −0.56 (1.298) mg/dL
Change from Baseline in Uric Acid, Median [20]: -0.34 mg/dL
Change from Baseline in Uric Acid, Min [20]: -3.50 mg/dL
